Assay results from patent US10105437B2, “Epitopes related to coeliac disease” (BTG International Limited, priority 2004, dated 2018).

Test system: PBMC from HLA-DQ2+ coeliac subjects
Assay: Interferon gamma ELISPOT, second round wheat gliadin and glutenin 16mer library
Type: cell-based, human
Settings: 16mers pre-treated with transglutaminase, 18 or 28 subjects; for subjects with >70% of maximal peptide-specific response: normalized to individual's maximal response
Description: 12mer peptides were then identified in which each potential deamidation site could be in position 4, 6 or 7 in the 9mer located within HLA-DQ2 binding groove (HLA-DQ2 anchors at these positions show a preference for glutamate). Candidate 12mer core epitope sequences were then flanked with glycine followed by the N-terminal residue present in the parent gliadin polypeptide and at the C-terminal by the C-terminal residue present in the parent gliadin polypeptide followed by glycine (i.e. GXXXXXXXQXXXXXXG (SEQ ID NO: 1936)). […]
IFNγ ELISpot assays (Mabtech, Sweden) were performed in 96-well plates (MAIP S-45, Millipore) in which each well contained 25 mcl of peptide solution and 100 mcl of PBMC (2-8×10^5/well) in RPMI containing 10% heat inactivated human AB serum. After development and drying, IFNγ ELISpot plates were assessed using the MAIP automated ELISpot plate counter. Data was then analysed according to a novel algorithm (Expectation Maximization: EM) to define and quantify interferon-gamma responses to 9mer sequences contained within the peptide library (see FIG. 3 and below). 9mer peptides were then rationalised according to an algorithm that assumes redundancy in T-cell recognition, the “IterativeCluster” algorithm (see FIG. 4 and below), by allowing groups of amino acids with similar chemical properties at any one position in the 9mer, or for glutamate to replace glutamine at any position (assuming deamidation may have occurred).
All 2nd round 16mer peptides were assessed in at least 18 subjects. […] All 16mers identified for the second round Oxford library also fulfilled the selection criteria for the Melbourne second round library.
The second round peptide library data was analysed according to the “dominance” of peptide responses in the interferon gamma ELISPOT in individual subjects i.e. the percent response of an individual's PBMC to a specific peptide normalized against that individual's maximal peptide-induced response. Sequences of peptides that stimulated at least 40% of the maximal peptide-specific response in at least one subject are shown in Table 1 below. The dataset supports the consistency and “dominance” of peptides conforming to the sequences identified using the first round 20mer peptide library using the Expectation Maximization (EM) algorithm described above.

| Substance | subjects with 10-40% of maximal peptide-specific response | subjects with 40-70% of maximal peptide-specific response | subjects with <10% of maximal peptide-specific response | subjects with >70% of maximal peptide-specific response |
| --- | --- | --- | --- | --- |
| QGQQGYYPISPQQSGQ [wheat 16mer, second round library] | 1/18 | 1/18 | 15/18 | 1/18 |
| G-QQQFSQPQQQFPQP-G: wheat 16mer, second round library | 7/28 | 5/28 | 16/28 | Nil |
| G-QQPQFSQQQQIPVI-G: wheat 16mer, second round library (PFPQPQQPFPW; Description of Artificial Sequence: Synthetic gluten peptide) | Nil | 1/28 | 17/18 | Nil |
| G-FPQQPQQQFPQPQQ-G: wheat 16mer, second round library (GQQPFPQPQQQFPQPG; Description of Artificial Sequence: Synthetic gluten peptide) | Nil | 1/28 | 27/28 | Nil |
| G-LQPFPQPQLPFPQP-G: wheat 16mer, second round library (GLQPFPQPQLPFPQPG; Description of Artificial Sequence: Synthetic gluten peptide) | 5/28 | 8/28 | 10/28 | 4/28 |
| VAHAIIMHQQQQQQQE [wheat 16mer, second round library] | 2/28 | 1/28 | 25/28 | Nil |
| YVPPDCSTINVPYANI [wheat 16mer, second round library] | 1/18 | 1/18 | 15/18 | 1/18 |
| G-QQPFPQPQQPIPVQ-G: wheat 16mer, second round library | 7/28 | 5/28 | 8/28 | 8/28 |
| G-QQPQQQPQQPFPQQ-G: wheat 16mer, second round library | 5/28 | 1/28 | 22/28 | Nil |
| DAIRAIIYSIVLQEQQ [wheat 16mer, second round library] | Nil | Nil | 17/18 | Nil |
| G-FPQLQQPQQPFPQQ-G: wheat 16mer, second round library (GFPQTQQPQQPFPQQG; Description of Artificial Sequence: Synthetic gluten peptide) | 1/28 | Nil | 26/28 | 1/28 |
| GQVVNNHGQTVFNDIG [wheat 16mer, second round library] | 4/18 | 1/18 |  | Nil |
| QGQPGYYPTSPQQIGQ [wheat 16mer, second round library] | 1/18 | 1/18 | 15/18 | 1/18 |
| G-LQPFPQPQLPYSQP-G: wheat 16mer, second round library (GLQPFPQPQLPYSQPG; Description of Artificial Sequence: Synthetic gluten peptide) | 12/28 | 3/28 | 11/28 | 2/28 |
| G-LQPFPQPQLPYPQP-G: wheat 16mer, second round library (GLQPFPQPQLPYPQPG; Description of Artificial Sequence: Synthetic gluten peptide) | Nil | 8/28 | 6/28 | 14/28 |
| LEAVTSIALRTLPTMC [wheat 16mer, second round library] | 1/18 | 1/18 |  | Nil |
| IIMQQEQQEQRQGVQI [wheat 16mer, second round library] | 8/28 | Nil | 19/28 | 1/28 |
| G-QPFPLQPQQPFPQQ-G: wheat 16mer, second round library (GQPFPWQPQQPFPQQG; Description of Artificial Sequence: Synthetic gluten peptide) | 7/28 | 2/28 | 19/28 | Nil |
| PGQGQSGYYPTSPQQS [wheat 16mer, second round library] | Nil | 1/18 | 16/18 | 1/18 |
| QGQQGYYPTSPQQPPQ [wheat 16mer, second round library] | Nil | 1/18 | Nil | Nil |
| LALQTLPAMCNVYIPP [wheat 16mer, second round library] | Nil | Nil | 17/18 | Nil |
| LQTLPSMCNVYIPPYC [wheat 16mer, second round library] | Nil | Nil | 17/18 | Nil |
| VPLYRTTTSVPFGVGT [wheat 16mer, second round library] | Nil | Nil | 17/18 | Nil |
| G-LQPFPQPQLPYLQP-G: wheat 16mer, second round library (GLQPFPQPQLPYLQPG; Description of Artificial Sequence: Synthetic gluten peptide) | 12/28 | 1/28 | 14/28 | 1/28 |
